In ChEMBL document CHEMBL3885881, “DrugMatrix”:

Species: Rattus norvegicus
Experiment: DrugMatrix - Regimen: Daily Repeat
Type: toxicity, organism-based, Sprague-Dawley
Design: regimen Daily Repeat, gender Male, age 6-8 weeks
Conditions: in vivo, po, route oral GAVAGE, […]; for ABSOLUTE BASOPHIL / ABSOLUTE EOSINOPHIL / ABSOLUTE LYMPHOCYTE / ABSOLUTE MONOCYTE / ABSOLUTE SEGMENTED NEUTROPHIL / BASOPHIL / EOSINOPHIL / ERYTHROCYTE COUNT / HEMATOCRIT / HEMOGLOBIN / LEUKOCYTE COUNT / LYMPHOCYTE / MEAN CORPUSCULAR HEMOGLOBIN / MEAN CORPUSCULAR HEMOGLOBIN CONCENTRATION / MEAN CORPUSCULAR VOLUME / MONOCYTE / NEUTROPHIL / NUCLEATED RED BLOOD CELLS / PLATELET COUNT: tissue Blood; for ALANINE AMINOTRANSFERASE / ALBUMIN / ALKALINE PHOSPHATASE / ASPARTATE AMINOTRANSFERASE / BLOOD UREA NITROGEN / CARBON DIOXIDE / CHLORIDE / CHOLESTEROL / CREATINE PHOSPHOKINASE / CREATININE / GLUCOSE / LACTATE DEHYDROGENASE / LIPASE / PHOSPHORUS / POTASSIUM / SODIUM / TOTAL BILIRUBIN / TOTAL PROTEIN / URIC ACID: tissue Plasma
[1] = 3 mg/kg, 120 h, dose level Low, time 5 day
[2] = 110 mg/kg, 72 h, dose level High, time 3 day
[3] = 110 mg/kg, 120 h, dose level High, time 5 day

Question: For Cc1cccc(Nc2ccncc2S(=O)(=O)NC(=O)NC(C)C)c1 [TORSEMIDE], which “ABSOLUTE BASOPHIL” value [1] is on record?
Answer: 0 CELLS/uL

Question: And the “ABSOLUTE EOSINOPHIL” value [1]?
Answer: 64 CELLS/uL

Question: What about the “ABSOLUTE LYMPHOCYTE” value [1] of the same compound?
Answer: 7502 CELLS/uL

Question: And the “ABSOLUTE MONOCYTE” value [1]?
Answer: 142 CELLS/uL

Question: And the “ABSOLUTE SEGMENTED NEUTROPHIL” value [1]?
Answer: 525.33 CELLS/uL

Question: What about the BASOPHIL [1] of the same compound?
Answer: 0%

Question: What about the EOSINOPHIL [1] of the same compound?
Answer: 0.67%

Question: And the “ERYTHROCYTE COUNT” value [1]?
Answer: 5.57 x10E6/uL

Question: What about the HEMATOCRIT [1] of the same compound?
Answer: 35.4%

Question: What about the HEMOGLOBIN [1] of the same compound?
Answer: 13.63 G/DL

Question: And the “LEUKOCYTE COUNT” value [1]?
Answer: 8.23 x10E3/uL

Question: What about the LYMPHOCYTE [1] of the same compound?
Answer: 91.33%

Question: What about the “MEAN CORPUSCULAR HEMOGLOBIN” value [1] of the same compound?
Answer: 24.57 pg

Question: What about the “MEAN CORPUSCULAR HEMOGLOBIN CONCENTRATION” value [1] of the same compound?
Answer: 38.5 G/DL

Question: What about the “MEAN CORPUSCULAR VOLUME” value [1] of the same compound?
Answer: 63.67 fL

Question: What about the MONOCYTE [1] of the same compound?
Answer: 1.67%

Question: What about the NEUTROPHIL [1] of the same compound?
Answer: 6.33%

Question: And the “NUCLEATED RED BLOOD CELLS” value [1]?
Answer: 0 /100WBC

Question: And the “PLATELET COUNT” value [1]?
Answer: 1174 x10E3/uL

Question: What about the “ALANINE AMINOTRANSFERASE” value [1] of the same compound?
Answer: 54.67 u/L

Question: What about the ALBUMIN [1] of the same compound?
Answer: 4 G/DL

Question: And the “ALKALINE PHOSPHATASE” value [1]?
Answer: 376.67 u/L

Question: What about the “ASPARTATE AMINOTRANSFERASE” value [1] of the same compound?
Answer: 76 u/L

Question: What about the “BLOOD UREA NITROGEN” value [1] of the same compound?
Answer: 11.67 mg/dL

Question: What about the “CARBON DIOXIDE” value [1] of the same compound?
Answer: 31.33 mmol/L

Question: What about the CHLORIDE [1] of the same compound?
Answer: 100 MEQ/L

Question: What about the CHOLESTEROL [1] of the same compound?
Answer: 63.67 mg/dL

Question: What about the “CREATINE PHOSPHOKINASE” value [1] of the same compound?
Answer: 293.67 u/L

Question: And the CREATININE [1]?
Answer: 0.14 mg/dL

Question: And the GLUCOSE [1]?
Answer: 148.67 mg/dL

Question: And the “LACTATE DEHYDROGENASE” value [1]?
Answer: 190.33 u/L

Question: What about the LIPASE [1] of the same compound?
Answer: 10.33 u/L

Question: And the PHOSPHORUS [1]?
Answer: 11.3 mg/dL

Question: What about the POTASSIUM [1] of the same compound?
Answer: 6.36 MEQ/L

Question: What about the SODIUM [1] of the same compound?
Answer: 144.87 MEQ/L

Question: What about the “TOTAL BILIRUBIN” value [1] of the same compound?
Answer: 0.17 mg/dL

Question: What about the “TOTAL PROTEIN” value [1] of the same compound?
Answer: 6.03 G/DL

Question: What about the “URIC ACID” value [1] of the same compound?
Answer: 0.47 mg/dL

Question: And the “ABSOLUTE BASOPHIL” value [2]?
Answer: 0 CELLS/uL

Question: What about the “ABSOLUTE EOSINOPHIL” value [2] of the same compound?
Answer: 0 CELLS/uL

Question: What about the “ABSOLUTE LYMPHOCYTE” value [2] of the same compound?
Answer: 16133.33 CELLS/uL

Question: What about the “ABSOLUTE MONOCYTE” value [2] of the same compound?
Answer: 63.33 CELLS/uL

Question: And the “ABSOLUTE SEGMENTED NEUTROPHIL” value [2]?
Answer: 1136.67 CELLS/uL

Question: What about the BASOPHIL [2] of the same compound?
Answer: 0%

Question: What about the EOSINOPHIL [2] of the same compound?
Answer: 0%

Question: What about the “ERYTHROCYTE COUNT” value [2] of the same compound?
Answer: 5.8 x10E6/uL

Question: And the HEMATOCRIT [2]?
Answer: 36.3%

Question: What about the HEMOGLOBIN [2] of the same compound?
Answer: 14.23 G/DL

Question: And the “LEUKOCYTE COUNT” value [2]?
Answer: 17.33 x10E3/uL

Question: What about the LYMPHOCYTE [2] of the same compound?
Answer: 93.33%

Question: What about the “MEAN CORPUSCULAR HEMOGLOBIN” value [2] of the same compound?
Answer: 24.53 pg

Question: And the “MEAN CORPUSCULAR HEMOGLOBIN CONCENTRATION” value [2]?
Answer: 39.23 G/DL

Question: And the “MEAN CORPUSCULAR VOLUME” value [2]?
Answer: 62.57 fL

Question: What about the MONOCYTE [2] of the same compound?
Answer: 0.33%

Question: What about the NEUTROPHIL [2] of the same compound?
Answer: 6.33%

Question: What about the “NUCLEATED RED BLOOD CELLS” value [2] of the same compound?
Answer: 0 /100WBC

Question: What about the “PLATELET COUNT” value [2] of the same compound?
Answer: 1008.33 x10E3/uL

Question: What about the “ALANINE AMINOTRANSFERASE” value [2] of the same compound?
Answer: 60.33 u/L

Question: What about the ALBUMIN [2] of the same compound?
Answer: 4.17 G/DL

Question: And the “ALKALINE PHOSPHATASE” value [2]?
Answer: 282 u/L

Question: What about the “ASPARTATE AMINOTRANSFERASE” value [2] of the same compound?
Answer: 86 u/L

Question: What about the “BLOOD UREA NITROGEN” value [2] of the same compound?
Answer: 29.33 mg/dL

Question: What about the “CARBON DIOXIDE” value [2] of the same compound?
Answer: 33.33 mmol/L

Question: What about the CHLORIDE [2] of the same compound?
Answer: 93.33 MEQ/L

Question: And the CHOLESTEROL [2]?
Answer: 69.33 mg/dL

Question: And the “CREATINE PHOSPHOKINASE” value [2]?
Answer: 98.67 u/L

Question: And the CREATININE [2]?
Answer: 0.32 mg/dL

Question: What about the GLUCOSE [2] of the same compound?
Answer: 148 mg/dL

Question: And the “LACTATE DEHYDROGENASE” value [2]?
Answer: 104.67 u/L

Question: What about the LIPASE [2] of the same compound?
Answer: 12 u/L

Question: What about the PHOSPHORUS [2] of the same compound?
Answer: 8.13 mg/dL

Question: What about the POTASSIUM [2] of the same compound?
Answer: 5.2 MEQ/L

Question: What about the SODIUM [2] of the same compound?
Answer: 142.37 MEQ/L

Question: What about the “TOTAL BILIRUBIN” value [2] of the same compound?
Answer: 0.2 mg/dL

Question: What about the “TOTAL PROTEIN” value [2] of the same compound?
Answer: 5.37 G/DL

Question: And the “URIC ACID” value [2]?
Answer: 1.2 mg/dL

Question: What about the “ABSOLUTE BASOPHIL” value [3] of the same compound?
Answer: 0 CELLS/uL

Question: And the “ABSOLUTE EOSINOPHIL” value [3]?
Answer: 0 CELLS/uL

Question: What about the “ABSOLUTE LYMPHOCYTE” value [3] of the same compound?
Answer: 12824.33 CELLS/uL

Question: And the “ABSOLUTE MONOCYTE” value [3]?
Answer: 353.67 CELLS/uL

Question: What about the “ABSOLUTE SEGMENTED NEUTROPHIL” value [3] of the same compound?
Answer: 788.67 CELLS/uL

Question: What about the BASOPHIL [3] of the same compound?
Answer: 0%

Question: And the EOSINOPHIL [3]?
Answer: 0%

Question: And the “ERYTHROCYTE COUNT” value [3]?
Answer: 6.15 x10E6/uL

Question: And the HEMATOCRIT [3]?
Answer: 38.4%

Question: What about the HEMOGLOBIN [3] of the same compound?
Answer: 14.97 G/DL

Question: And the “LEUKOCYTE COUNT” value [3]?
Answer: 13.97 x10E3/uL

Question: And the LYMPHOCYTE [3]?
Answer: 92%

Question: What about the “MEAN CORPUSCULAR HEMOGLOBIN” value [3] of the same compound?
Answer: 24.37 pg

Question: What about the “MEAN CORPUSCULAR HEMOGLOBIN CONCENTRATION” value [3] of the same compound?
Answer: 38.97 G/DL

Question: And the “MEAN CORPUSCULAR VOLUME” value [3]?
Answer: 62.5 fL

Question: What about the MONOCYTE [3] of the same compound?
Answer: 2.33%

Question: What about the NEUTROPHIL [3] of the same compound?
Answer: 5.67%

Question: And the “NUCLEATED RED BLOOD CELLS” value [3]?
Answer: 0.33 /100WBC

Question: And the “PLATELET COUNT” value [3]?
Answer: 1188.33 x10E3/uL

Question: And the “ALANINE AMINOTRANSFERASE” value [3]?
Answer: 70 u/L

Question: What about the ALBUMIN [3] of the same compound?
Answer: 4.5 G/DL

Question: And the “ALKALINE PHOSPHATASE” value [3]?
Answer: 395.67 u/L

Question: What about the “ASPARTATE AMINOTRANSFERASE” value [3] of the same compound?
Answer: 104 u/L

Question: And the “BLOOD UREA NITROGEN” value [3]?
Answer: 29 mg/dL

Question: What about the “CARBON DIOXIDE” value [3] of the same compound?
Answer: 38.33 mmol/L

Question: What about the CHLORIDE [3] of the same compound?
Answer: 86.33 MEQ/L

Question: And the CHOLESTEROL [3]?
Answer: 65.33 mg/dL

Question: And the “CREATINE PHOSPHOKINASE” value [3]?
Answer: 234.67 u/L

Question: What about the CREATININE [3] of the same compound?
Answer: 0.3 mg/dL

Question: What about the GLUCOSE [3] of the same compound?
Answer: 176 mg/dL

Question: What about the “LACTATE DEHYDROGENASE” value [3] of the same compound?
Answer: 220.33 u/L

Question: And the LIPASE [3]?
Answer: 10.67 u/L

Question: What about the PHOSPHORUS [3] of the same compound?
Answer: 8.93 mg/dL

Question: And the POTASSIUM [3]?
Answer: 4.3 MEQ/L

Question: And the SODIUM [3]?
Answer: 142.87 MEQ/L

Question: What about the “TOTAL BILIRUBIN” value [3] of the same compound?
Answer: 0.1 mg/dL

Question: What about the “TOTAL PROTEIN” value [3] of the same compound?
Answer: 6.83 G/DL

Question: What about the “URIC ACID” value [3] of the same compound?
Answer: 0.6 mg/dL
